Earlier results as cited in patent US20240189323A1, “PREPARATION FOR ETHINYLESTRADIOL-CYCLODEXTRIN COMPLEX AND USE THEREOF” (NATIONAL RESEARCH INSTITUTE FOR FAMILY PLANNING, priority 2022, published 2024).

Conditions: background description

## C#C[C@]1(O)CC[C@H]2[C@@H]3CCc4cc(O)ccc4[C@H]3CC[C@@]21C [ethinylestradiol, 3-hydroxy-19-nor-17α-pregna-1,3,5(10)-trien-20-yn-17-ol]
  solubility in water: almost insoluble in water
